Data set [1] addresses T1, recombinant human 11β-HSD2 (Homo sapiens, UniProt P80365).
T1 sequence (P80365 1-405): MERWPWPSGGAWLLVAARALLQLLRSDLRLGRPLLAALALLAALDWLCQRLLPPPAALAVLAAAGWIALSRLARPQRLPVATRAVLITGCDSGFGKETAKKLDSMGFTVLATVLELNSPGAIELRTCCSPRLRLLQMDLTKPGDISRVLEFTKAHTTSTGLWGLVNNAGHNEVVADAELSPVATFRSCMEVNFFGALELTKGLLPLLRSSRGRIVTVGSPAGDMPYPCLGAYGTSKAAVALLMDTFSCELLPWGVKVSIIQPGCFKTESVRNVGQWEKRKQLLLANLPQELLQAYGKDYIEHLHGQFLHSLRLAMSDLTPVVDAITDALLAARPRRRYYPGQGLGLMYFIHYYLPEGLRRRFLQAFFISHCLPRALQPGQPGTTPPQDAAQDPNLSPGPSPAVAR
The data set can be described thus: Human 11β-HSD2 inhibitory activity (HTRF). Type of data set: biochemical. Particulars: recombinant human 11β-HSD2, 200 nM cortisol, 200 μM NAD, 2 h 37° C. The method, then:
(§1) Test Method 1: Test for Measuring Human 11β-HSD1/11β-HSD2 Inhibitory Activity
(§2) 11β-HSD1 inhibitory activity was measured in the following order. In addition, an enzymatic reaction and assay was performed using a 384-well plate. The enzyme was prepared according to a document (Walker E. A. et al., Journal of Biological Chemistry, 2001, Vol. 276, p. 21343-21350). The reaction was performed in a manner in which various concentrations of test compounds were added to a reaction liquid including a 10 mM a phosphoric acid buffer (pH 6.6), 200 nM cortisone, 40 μM reduced nicotinamide adenine dinucleotide phosphate (NADPH), and recombinant human 11β-HSD1, followed by incubation for an hour at room temperature (10 μl/well). The test compound was dissolved in dimethylsulfoxide (DMSO), and the DMSO concentration was adjusted so as to be 1% in the reaction liquid. After the enzymatic reaction, cortisol was detected using Homogenous Time-Resolved Fluorescence (HTRF) to measure enzyme inhibitory activity. XL-665-labeled cortisol including 400 μM carbenoxolone and a cryptate-labeled cortisol antibody (CIS bio international) were added respectively to the plate at 5 μl/well, followed by incubation for 2 hours at room temperature, and then fluorescence intensity was measured using a fluorospectrometer (trade name: Discovery, manufactured by PerkinElmer Inc.), thereby calculating enzyme inhibitory activity from the ratio of fluorescence intensity between two wavelengths (665 nm/620 nm).
11β-HSD2 inhibitory activity was measured in the same manner as in the measurement of the 11β-HSD1 inhibitory activity, except for the conditions of the enzymatic reaction. The enzymatic reaction was performed in the manner in which various concentrations of test substances were added to a reaction liquid including 40 mM tris-hydrochloric acid buffer (Tris-HCl) (pH 8.0), 200 nM cortisol, 200 μM nicotinamide adenine dinucleotide (NAD), and recombinant human 11β-HSD2, followed by incubation for 2 hours at 37° C. (10 μl/well).
(§3) The results of measurement were calculated by obtaining the average of the values of three wells under the same condition. The ratio obtained when DMSO was added instead of the test compound was regarded as 0%, and the ratio obtained when 11β-HSD1 or 11β-HSD2 was not added was regarded as 100%, whereby a concentration at which the test compound suppresses the enzyme activity by 50% was calculated as IC50 of the inhibitory activity of the compound.

Data set [2] addresses T2, recombinant human 11β-HSD1 (Homo sapiens, UniProt P28845).
T2 construct: made in house
The data set can be described thus: Human 11β-HSD1 inhibitory activity (HTRF cortisol detection). Type of data set: biochemical. The conditions noted are these: recombinant human 11β-HSD1, 200 nM cortisone, 40 μM NADPH, 1 h room temperature. The procedure: as §1, §2, §3
(In general: In TR-FRET formats the signal depends on donor and acceptor labels being close together.)

The subject of data set [3] is spontaneous alternation behavior disorder induced by scopolamine. The data set can be described thus: Test for spontaneous alternation behavior disorder induced by scopolamine (Y-maze). Format: in vivo, male ddY mice. Particulars: oral administration, ddY mice, scopolamine 0.5 mg/kg i.p. The method, then: Test Method 2: Test for Spontaneous Alternation Behavior Disorder Induced by Scopolamine Test drugs were orally administered to 5- to 7-week old male ddY mice. 10 minutes later, scopolamine was intraperitoneally administered to the animals at 0.5 mg/kg. 20 minutes later, the animal was put in Y-maze having arms with the same length and extending in three directions and allowed to freely explore for 8 minutes. During the exploration, spontaneous arm-alternating behavior (entering different arms 3 times consecutively) was counted to calculate the rate of spontaneous alternation (spontaneous alternation behavior/(number of times of entering−2)×100), thereby judging drug efficacy.

Data set [4] relates to model with fibromyalgia caused by repeated reserpine administration. The data set can be described thus: Test for model with fibromyalgia caused by repeated reserpine administration (muscle tenderness threshold). Format: in vivo, rats (SD, male). The conditions noted are these: 10 mg/kg orally, calculated point in time 60 min, healthy rat = 100%, reserpine + solvent = 0%. The procedure:
Test Method 4: Test for Model with Fibromyalgia Caused by Repeated Reserpine Administration
This test was performed according to Pain, 2009, Vol. 146, p 26-33., by using rats (SD, male, 7-week old).
The threshold of muscle tenderness was measured according to the method of Schafers et al. (Pain, 2003, Vol. 104, p 579-588). A pressure stimulus slowly increasing up to 250 g was applied to the gastrocnemius muscle of the right lower leg of the rat. […] The measurement was performed 3 times for each point in time, and the average thereof was taken as a measured value.
A solvent (0.5% aqueous acetic acid) or reserpine (1 mg/kg) was subcutaneously administered to the back of the rat once a day for three days. The dose of both the solvent and reserpine administered was 1 mL per 1 kg of the body weight of the animal. 6 days after the beginning of the administration of the solvent or reserpine, the muscle tenderness threshold of each rat was measured, and the rats were grouped such that the difference in the average of threshold between the respective groups was reduced. The drug efficacy evaluation was performed on the next day. […] 30, 60, and 120 minutes after the administration, the muscle tenderness threshold was measured. For healthy rats, the drug was not administered, and only the muscle tenderness threshold was measured. […]

Data set [5] deals with spinal nerve ligation model. The data set can be described thus: Test for spinal nerve ligation model (von Frey hair test). Format: in vivo, rats (SD, male). The conditions noted are these: 1 mg/kg orally, 1 hour before evaluation, threshold of 50% retraction response, pseudo-operation = 100%, solvent = 0%. The procedure:
Test Method 3: Test for Spinal Nerve Ligation Model This test was performed according to Pain, 1992, Vol. 50, p 355-363. The skin and muscle in the lumbar region of rats (SD, male, 5- to 6-week old) were excised under pentobarbital anesthesia, and a lumbar L6 transverse process was removed to expose lumbar nerves. L5 and L6 spinal nerves were ligated with a silk thread, and then the wound was sutured. The procedure was performed in the left side. In addition, in the case of pseudo-operation, the wound was sutured without performing nerve ligation. The drug efficacy was evaluated on the postoperative days 7 to 12 by von Frey hair test. The threshold of retraction response was calculated according to Journal of Neuroscience Methods, 1994, Vol. 53, p 55-63. By using 8 types of von Frey filaments (0.41 g to 15.14 g), the sole of the rat's hindlimb was stimulated, and the threshold of 50% retraction response was determined by an up-and-down method. […] The test substance was evaluated by calculating the improvement rate of the test substance-administered group, under the condition that the threshold of the procedure-performed limb of the pseudo-operation animal group was regarded as 100% and the threshold of the procedure-performed limb of the solvent-administered animal group having undergone operation was regarded as 0%.

Data set [6] deals with cortisol in the brain homogenate. The data set can be described thus: Pharmacokinetic test under cortisone load (brain cortisol by ELISA). Format: in vivo, male ddY mice. Particulars: Mus musculus; ddY mice, 1 mg/kg orally; cortisone 1 mg/kg i.p. after 30 min, brain collected 20 min later; read-out: inhibition rate (cortisol in brain). The procedure: Test Method 6: Pharmacokinetic Test Under Cortisone Load
A 0.5% methyl cellulose solution or a 0.5% methyl cellulose suspension including the test substance was orally administered to 5-week old male ddY mice. After 30 minutes, cortisone was intraperitoneally administered at 1 mg/kg, and 20 minutes later, the brain was collected. A phosphoric acid buffer (pH 7.0) was added to the collected brain sample, in an amount that was 9 times the weight of the brain, thereby preparing 10% brain homogenate. The quantity of cortisol in the brain homogenate was determined by ELISA, and the inhibition rate resulting from the test substance was calculated, under the condition that the amount of cortisol produced from the mouse orally administered with 0.5% methyl cellulose was regarded as 100%.
On the technique in general: ELISA stands for enzyme-linked immunosorbent assay.

A short description of data set [7]: Pharmacokinetic test (plasma and brain concentration, LC-MS/MS). The conditions noted are these: male, mouse, po, mice, 1 mg/kg orally, an hour after administration. Format: in vivo. The procedure: Test Method 5: Pharmacokinetic Test
A 0.5% methyl cellulose suspension including the test substance was orally administered to 5-week old male mice, and the blood and brain were collected after a certain time passed from the administration. The collected blood sample was treated with sodium heparin, and then the plasma was separated, thereby preparing a plasma sample. In addition, a phosphoric acid buffer (pH 7.0) was added to the collected brain sample, in an amount that was 4 times the weight of the brain, thereby preparing 20% brain homogenate. The concentration of the respective test substances in the plasma and brain was measured using LC-MS/MS. An hour after Example 8-1 was administered at 1 mg/kg, the concentration of the substance in the plasma was 153 ng/ml, and the concentration in the brain was 58 ng/ml.

Results on 14 compounds are retold here after US9266840B2, “Bicyclic heterocyclic compound” (Astellas Pharma Inc., priority 2011, dated 2016).

Usually IC50 stands for the concentration that inhibits the measured activity by half. Usually inhibition stands for the drop in the measured response relative to a control, in per cent.

SMILES strings stand for the structures. Read-outs that look alike come from different tables or passages of the source.

T2 sequence (P28845 whole entry): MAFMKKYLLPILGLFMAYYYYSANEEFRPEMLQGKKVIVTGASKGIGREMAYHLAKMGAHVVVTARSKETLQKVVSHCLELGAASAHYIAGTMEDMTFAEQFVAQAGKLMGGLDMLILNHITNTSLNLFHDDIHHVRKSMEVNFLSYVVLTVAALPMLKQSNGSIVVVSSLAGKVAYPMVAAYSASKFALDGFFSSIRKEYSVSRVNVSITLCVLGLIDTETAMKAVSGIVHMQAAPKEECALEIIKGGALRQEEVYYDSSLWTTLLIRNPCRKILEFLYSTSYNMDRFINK

Regarding `N#Cc1cccc(F)c1-c1ccc(C(=O)N(C2CC2)C2CCc3[nH]ncc3C2)cc1` (single isomer, unassigned; (-)) [Example 7-1, (−)-2′-cyano-N-cyclopropyl-6′-fluoro-N-(4,5,6,7-tetrahydro-1H-indazol-5-yl)biphenyl-4-carboxamide], the values for the half-inhibitory concentration (IC50) in data set [1] and in data set [2] were above 3 µM and 0.018 µM, respectively. Also, in data set [3], the “Dose improving minimum spontaneous alternation rate” value came to 1.0 mg/kg. Further, the “Maximum improvement rate % (applied dose)” value in data set [4] is listed as 82 (10 mg/kg) %. Also, the “Improvement rate % (applied dose)” value in data set [5] is 52 (1 mg/kg) %.
Turning to `CC(C)Oc1ccc(C(=O)N(C2CC2)C2CCc3[nH]ncc3C2)cc1` (single isomer, unassigned; (-)) [Example 8-1, (−)-N-cyclopropyl-4-isopropoxy-N-(4,5,6,7-tetrahydro-1H-indazol-5-yl)benzamide], the 50% inhibitory concentration (IC50) is above 30 µM in data set [1] and 0.026 µM in data set [2]. Besides, the “Dose improving minimum spontaneous alternation rate” value in data set [3] came to 0.3 mg/kg. Besides, the inhibition at 1 mg/kg in data set [6] was 43%. Further, the “Maximum improvement rate % (applied dose)” value in data set [4] is on record as 104 (10 mg/kg) %. Moreover, the “Improvement rate % (applied dose)” value in data set [5] is reported as 73 (1 mg/kg) %. Moreover, the concentration at 1 h worked out at 153 ng/mL in data set [7] (plasma, read-out: concentration of the substance in the plasma) and 58 ng/mL in data set [7] (brain homogenate, read-out: concentration in the brain).
`N#Cc1ccccc1-c1ccc(C(=O)N(C2CC2)C2CCc3[nH]ncc3C2)cc1` (stereo not shown) [Example 1, 2′-cyano-N-cyclopropyl-N-(4,5,6,7-tetrahydro-1H-indazol-5-yl)biphenyl-4-carboxamide]: the IC50 in data set [1] is above 30 µM; in data set [2], 0.048 µM.
As for `COc1cc(OC(C)C)ccc1C(=O)N(C1CC1)C1CCc2[nH]ncc2C1` (stereo not shown) [Example 5, N-cyclopropyl-4-isopropoxy-2-methoxy-N-(4,5,6,7-tetrahydro-1H-indazol-5-yl)benzamide], the IC50 in data set [2] worked out at 0.056 µM.
On to `O=C(c1ccc(-c2ccccc2F)o1)N(C1CC1)C1CCc2[nH]ncc2C1` (stereo not shown) [Example 27], for which the concentration for half-maximal inhibition (IC50) in data set [1] was above 3 µM; in data set [2] it was 0.062 µM.
For `Cc1cc(C(=O)N(C2CC2)C2CCc3n[nH]cc3C2)c(C)n1Cc1ccc(F)cc1F` (stereo not shown) [Example 30], in that order: above 3 µM and 0.028 µM.
For `Cn1ccc2c(C(=O)N(C3CC3)C3CCc4[nH]ncc4C3)cccc21` (stereo not shown) [Example 81], in that order: above 30 µM and 0.024 µM.
As to `COc1ccc(C(=O)N(C2CC2)C2CCc3[nH]ncc3C2)c2ccn(C)c12` (stereo not shown) [Example 132], the IC50 is above 30 µM in data set [1] and 0.038 µM in data set [2].
For `CC(F)(F)CCCn1ncc2c(C(=O)N(C3CC3)C3CCc4[nH]ncc4C3)cccc21` (stereo not shown) [Example 159], in that order: above 30 µM and 0.04 µM.
Consider `N#Cc1cc(F)ccc1-c1ccc(C(=O)N(C2CC2)C2CCc3[nH]ncc3C2)cc1` (stereo not shown) [Example 176], for which, in data set [2], the half-maximal inhibitory concentration (IC50) was determined as 0.088 µM.
Still for that read-out and setting: the same measure for `N#Cc1ccccc1-c1ccc(C(=O)N(C2CC2)C2CCc3[nH]ncc3C2)c(F)c1` (stereo not shown) [Example 190]: 0.025 µM.
Still for that read-out and setting: next, `O=C(c1ccc(-c2c(F)cccc2F)cc1)N(C1CC1)C1CCc2[nH]ncc2C1` (stereo not shown) [Example 216]: 0.043 µM; `O=C(c1ccc(-c2c(F)cncc2F)cc1)N(C1CC1)C1CCc2n[nH]cc2C1` (stereo not shown) [Example 228]: 0.053 µM.
Same read-out and setting: next, `CC(C)Cc1ccc(C(=O)N(C2CC2)C2CCc3[nH]ncc3C2)cc1` (stereo not shown) [Example 237]: 0.04 µM.
